Experimental data reported in PubChem BioAssay AID256 (DTP/NCI, 2004).
Where “and” joins values, the source holds several entries; their conditions need not be identical. Identical values can stand only once. Toxic doses and inconclusive results are not listed. Rule for the calls: active = survival T/C of 150% or more; inactive = T/C below 125% in these data.

Tested on: CD2F1 mice, L1210 leukemia ip, survival T/C
Assay: NCI In Vivo Anticancer Drug Screen. Data for tumor model L1210 Leukemia (intraperitoneal) in CD2F1 (CDF1) mice
Details: higher = longer survival
Procedure, shortened: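 In this screen, transplantable tumors were grown in mice given either the compound or its vehicle. Results were expressed as the treated measurement relative to the control measurement.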

[1] = endpoint: mean survival time, dose: 100.0 mg/kg/injection, schedule: Q04DX003 (ip), vehicle: saline with Tween-80
[2] = endpoint: mean survival time, dose: 200.0 mg/kg/injection, schedule: Q04DX003 (ip), vehicle: saline with Tween-80
[3] = endpoint: mean survival time, dose: 400.0 mg/kg/injection, schedule: Q04DX003 (ip), vehicle: saline with Tween-80
[4] = endpoint: mean survival time, dose: 100.0 mg/kg/injection, schedule: Q01DX009 (ip), vehicle: saline
[5] = endpoint: mean survival time, dose: 200.0 mg/kg/injection, schedule: Q01DX009 (ip), vehicle: saline
[6] = endpoint: mean survival time, dose: 25.0 mg/kg/injection, schedule: Q01DX009 (ip), vehicle: saline with Tween-80
[7] = endpoint: mean survival time, dose: 50.0 mg/kg/injection, schedule: Q01DX009 (ip), vehicle: saline with Tween-80
[8] = endpoint: mean survival time, dose: 100.0 mg/kg/injection, schedule: Q01DX009 (ip), vehicle: saline with Tween-80
[9] = endpoint: mean survival time, dose: 100.0 mg/kg/injection, schedule: Q04DX003 (ip), vehicle: saline
[10] = endpoint: mean survival time, dose: 200.0 mg/kg/injection, schedule: Q04DX003 (ip), vehicle: saline
[11] = endpoint: mean survival time, dose: 200.0 mg/kg/injection, schedule: Q01DX009 (ip), vehicle: saline with Tween-80
[12] = endpoint: mean survival time, dose: 400.0 mg/kg/injection, schedule: Q01DX009 (ip), vehicle: saline with Tween-80
[13] = endpoint: mean survival time, dose: 50.0 mg/kg/injection, schedule: Q04DX002 (ip), vehicle: saline with Tween-80
[14] = endpoint: mean survival time, dose: 100.0 mg/kg/injection, schedule: Q04DX002 (ip), vehicle: saline with Tween-80
[15] = endpoint: mean survival time, dose: 200.0 mg/kg/injection, schedule: Q04DX002 (ip), vehicle: saline with Tween-80
[16] = endpoint: mean survival time, dose: 400.0 mg/kg/injection, schedule: Q04DX002 (ip), vehicle: saline with Tween-80
[17] = endpoint: mean survival time, dose: 25.0 mg/kg/injection, schedule: Q04DX003 (ip), vehicle: saline with Tween-80
[18] = endpoint: mean survival time, dose: 50.0 mg/kg/injection, schedule: Q04DX003 (ip), vehicle: saline with Tween-80
[19] = endpoint: mean survival time, dose: 25.0 mg/kg/injection, schedule: Q01DX009 (ip), vehicle: Klucel (hydroxypropylcellulose) (HPC)
[20] = endpoint: mean survival time, dose: 12.5 mg/kg/injection, schedule: Q04DX002 (ip), vehicle: saline with Tween-80

Measured: T/C

O.O.O.O.[Fe].[Fe].[Fe].[NH-]c1c(C(=O)O)ncn1C1[OH+]C(CO)C(O)C1O.[NH-]c1c(C(=O)O)ncn1C1[OH+]C(CO)C(O)C1O (stereo not drawn)
inactive: endpoint: mean survival time, dose: 12.5 mg/kg/injection, schedule: Q01DX005 (ip), vehicle: distilled water + Tween-80 94 % of control | endpoint: mean survival time, dose: 25.0 mg/kg/injection, schedule: Q01DX005 (ip), vehicle: distilled water + Tween-80 97 % of control | endpoint: mean survival time, dose: 50.0 mg/kg/injection, schedule: Q01DX005 (ip), vehicle: distilled water + Tween-80 103 % of control | endpoint: mean survival time, dose: 200.0 mg/kg/injection, schedule: Q01DX005 (ip), vehicle: distilled water + Tween-80 88 % of control

O=C(Nc1ccc2c3c(cccc13)C=C2)c1ccccc1
inactive: [1] 96 % of control | [2] 93 % of control | [3] 93 % of control

O=C(O)Cc1cccnc1
inactive: [4] 98 % of control | [5] 102 % of control | endpoint: mean survival time, dose: 400.0 mg/kg/injection, schedule: Q01DX009 (ip), vehicle: saline 110 % of control

C/C(=N/NC(=O)CC#N)c1ccccc1
inactive: [6] 98 % of control | [7] 98 % of control | [8] 98 % of control

C=CCNC(=O)/C=C/C(=O)O
inactive: [9] 97 % of control | [10] 97 % of control | endpoint: mean survival time, dose: 400.0 mg/kg/injection, schedule: Q04DX003 (ip), vehicle: saline 103 % of control

CC(C)CCCC(C)C1CCC2C3CC4OC45CC(O)CCC5(C)C3CCC12C (stereo not drawn)
inactive: [1] 96 % of control | [2] 90 % of control | [3] 96 % of control

S=c1[nH]ccn1-c1cccc(Br)c1
inactive: [8] 112 % of control | [11] 103 % of control | [12] 112 % of control

CCN(N=O)C(=O)N(Cc1ccccc1)Cc1ccccc1
inactive: endpoint: mean survival time, dose: 25.0 mg/kg/injection, schedule: Q01DX009 (ip), vehicle: other 94 % of control | endpoint: mean survival time, dose: 50.0 mg/kg/injection, schedule: Q01DX009 (ip), vehicle: other 94 % of control | endpoint: mean survival time, dose: 100.0 mg/kg/injection, schedule: Q01DX009 (ip), vehicle: other 96 % of control | endpoint: mean survival time, dose: 200.0 mg/kg/injection, schedule: Q01DX009 (ip), vehicle: other 96 % of control

CN1CC(O)(C(O)C(O)C(O)CO)SC1=S (stereo not drawn)
inactive: endpoint: mean survival time, dose: 100.0 mg/kg/injection, schedule: Q01DX009 (ip), vehicle: saline sonified 98 % of control | [1] 100 % of control | endpoint: mean survival time, dose: 200.0 mg/kg/injection, schedule: Q01DX009 (ip), vehicle: saline sonified 101 % of control | [2] 93 % of control | endpoint: mean survival time, dose: 400.0 mg/kg/injection, schedule: Q01DX009 (ip), vehicle: saline sonified 109 % of control | [3] 89 % of control

Cc1cn(C2CC(O)C(CO)O2)c(=O)nc1NCCc1c[nH]c2ccccc12 (stereo not drawn)
inactive: endpoint: median survival time, dose: 12.5 mg/kg/injection, schedule: Q01DX005 (ip), vehicle: distilled water + Tween-80 103 % of control | endpoint: median survival time, dose: 25.0 mg/kg/injection, schedule: Q01DX005 (ip), vehicle: distilled water + Tween-80 103 % of control | endpoint: median survival time, dose: 50.0 mg/kg/injection, schedule: Q01DX005 (ip), vehicle: distilled water + Tween-80 102 % of control | endpoint: median survival time, dose: 100.0 mg/kg/injection, schedule: Q01DX005 (ip), vehicle: distilled water + Tween-80 103 % of control | endpoint: median survival time, dose: 200.0 mg/kg/injection, schedule: Q01DX005 (ip), vehicle: distilled water + Tween-80 102 % of control

Oc1c(C(c2ccccc2)N2CCOCC2)ccc2ccccc12 (stereo not drawn)
inactive: [7] 94 % of control | [8] 102 % of control | [1] 95 % of control | [11] 98 % of control | [2] 103 % of control

COC(=O)c1cccn1C(=O)c1cc(OC)c(OC)cc1[N+](=O)[O-]
inactive: [13] 96 % of control | [14] 92 % of control and 93 % of control | [15] 96 % of control | [16] 89 % of control

Nc1nc(N)c(N=Nc2ccc(S(=O)(=O)c3ccc(N=Nc4c(N)nc(N)[nH]c4=O)cc3)cc2)c(=O)[nH]1
inactive: [8] 102 % of control | [11] 92 % of control | [12] 92 % of control

O=C(c1ccccc1)C1(c2ccccc2)CC1
inactive: [1] 108 % of control | [2] 101 % of control | [3] 101 % of control

Cc1cc(C)[nH]c(=S)n1.[Pt]
inactive: endpoint: mean survival time, dose: 3.12 mg/kg/injection, schedule: Q04DX003 (ip), vehicle: saline with Tween-80 104 % of control | endpoint: mean survival time, dose: 3.12 mg/kg/injection, schedule: Q04DX003 (ip), vehicle: saline 120 % of control and 108 % of control | endpoint: mean survival time, dose: 6.25 mg/kg/injection, schedule: Q04DX003 (ip), vehicle: saline with Tween-80 102 % of control | endpoint: mean survival time, dose: 6.25 mg/kg/injection, schedule: Q04DX003 (ip), vehicle: saline 117 % of control and 96 % of control | endpoint: mean survival time, dose: 12.5 mg/kg/injection, schedule: Q04DX003 (ip), vehicle: saline with Tween-80 101 % of control | endpoint: mean survival time, dose: 12.5 mg/kg/injection, schedule: Q04DX003 (ip), vehicle: saline 96 % of control | [17] 98 % of control | endpoint: mean survival time, dose: 25.0 mg/kg/injection, schedule: Q04DX003 (ip), vehicle: saline 102 % of control | [18] 101 % of control | endpoint: mean survival time, dose: 50.0 mg/kg/injection, schedule: Q04DX003 (ip), vehicle: saline 96 % of control and 97 % of control | [1] 101 % of control | [9] 120 % of control and 96 % of control | [2] 107 % of control | [10] 106 % of control

O=C(COc1ccc(F)cc1F)OC(=O)COc1ccc(F)cc1F
inactive: [14] 92 % of control | [15] 89 % of control | [16] 89 % of control

CCN(CC)CCCC(C)NC(C)CCCN(CC)CC (stereo not drawn)
inactive: [19] 95 % of control | endpoint: mean survival time, dose: 50.0 mg/kg/injection, schedule: Q01DX009 (ip), vehicle: Klucel (hydroxypropylcellulose) (HPC) 95 % of control

CCCCCCCCOC(=O)Nc1ccc(S(=O)(=O)N(CCC)CCC)cc1
inactive: endpoint: mean survival time, dose: 100.0 mg/kg/injection, schedule: Q01DX001 (ip), vehicle: saline 96 % of control | endpoint: mean survival time, dose: 200.0 mg/kg/injection, schedule: Q01DX001 (ip), vehicle: saline 92 % of control | endpoint: mean survival time, dose: 400.0 mg/kg/injection, schedule: Q01DX001 (ip), vehicle: saline 88 % of control

N#CN1CCOCC1
inactive: [4] 101 % of control | [9] 91 % of control | [5] 110 % of control | [10] 96 % of control

OCC1CCC(CO)CC1 (stereo not drawn)
inactive: endpoint: mean survival time, dose: 6.25 mg/kg/injection, schedule: Q01DX009 (ip), vehicle: Klucel (hydroxypropylcellulose) (HPC) 100 % of control | endpoint: mean survival time, dose: 12.5 mg/kg/injection, schedule: Q01DX009 (ip), vehicle: Klucel (hydroxypropylcellulose) (HPC) 95 % of control | [19] 103 % of control

CCC(O)(CC)c1ccc2ncccc2c1
inactive: endpoint: mean survival time, dose: 75.0 mg/kg/injection, schedule: Q04DX003 (ip), vehicle: saline 98 % of control | endpoint: mean survival time, dose: 150.0 mg/kg/injection, schedule: Q04DX003 (ip), vehicle: saline 97 % of control | endpoint: mean survival time, dose: 300.0 mg/kg/injection, schedule: Q04DX003 (ip), vehicle: saline 98 % of control

CCCCC(=O)n1c(Cl)c(/C=N\NC(N)=S)c2ccccc21
inactive: [17] 101 % of control | [18] 101 % of control | [1] 108 % of control

CC(=O)O.CC(=O)O.[Co].[NH2-].[NH2-].[NH2-].[NH2-]
inactive: endpoint: mean survival time, dose: 6.25 mg/kg/injection, schedule: Q04DX002 (ip), vehicle: saline with Tween-80 93 % of control | [20] 87 % of control

COC(=O)NC(N)=Nc1ccccc1
inactive: endpoint: mean survival time, dose: 12.5 mg/kg/injection, schedule: Q01DX009 (ip), vehicle: saline with Tween-80 96 % of control | [6] 87 % of control

c1ccc(C[P+](c2ccccc2)(c2ccccc2)c2ccccc2)cc1
inactive: endpoint: mean survival time, dose: 0.63 mg/kg/injection, schedule: Q01DX009 (ip), vehicle: saline with Tween-80 89 % of control | endpoint: mean survival time, dose: 1.25 mg/kg/injection, schedule: Q01DX009 (ip), vehicle: saline with Tween-80 100 % of control | endpoint: mean survival time, dose: 2.5 mg/kg/injection, schedule: Q01DX009 (ip), vehicle: saline with Tween-80 93 % of control

CC/C(=N/O)C(N)=O
inactive: [1] 100 % of control | [2] 103 % of control | [3] 105 % of control

CN(C)C(=O)C(Cc1c[nH]c2ccccc12)NC(=O)c1ccccc1 (stereo not drawn)
inactive: [14] 95 % of control | [15] 103 % of control | [16] 98 % of control

O=C(CCCN1CCC(O)(c2ccc(C(F)(F)F)cc2)CC1)c1ccc(N2CCC(O)CC2)cc1
inactive: [20] 103 % of control | endpoint: mean survival time, dose: 25.0 mg/kg/injection, schedule: Q04DX002 (ip), vehicle: saline with Tween-80 103 % of control | [13] 103 % of control
